In this experiment the test system is rabbit skeletal myofibrils (fast skeletal myofibrils). Briefly: Activation of fast skeletal myofibrils (PUMA assay, AC1.4). Conditions: calcium at pCa25, AC1.4 = concentration at which the compound increased the enzymatic activity. The class given is biochemical. Summed up:
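In 12 mM PIPES pH 6.8 with 2 mM MgCl2 and 1 mM DTT, Triton-washed rabbit skeletal myofibrils were run at the pCa25 calcium level. Myosin-made ADP was recycled through a PK/LDH coupled system; NADH loss read at 340 nm.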

Consider `CC[C@H](C)[C@H]1C(=O)Nc2ccccc2CN1C(=O)N1CC(N2CCN(CCO)CC2)C1` [Compound 267, (S)-3-((S)-sec-butyl)-4-(3-(4-(2-hydroxyethyl)piperazin-1-yl)azetidine-1-carbonyl)-1,3,4,5-tetrahydro-2H-benzo[e][1,4]diazepin-2-one], for which the AC1.4 amounted to 0.95 µM.
For the compound `CC[C@H](C)[C@H]1C(=O)Nc2ccccc2CN1C(=O)N1CC(N2CCN(c3ccccn3)CC2)C1` [Compound 268, (S)-3-((S)-sec-butyl)-4-(3-(4-(pyridin-2-yl)piperazin-1-yl)azetidine-1-carbonyl)-1,3,4,5-tetrahydro-2H-benzo[e][1,4]diazepin-2-one], the AC1.4 was determined as 1.03 µM.
Consider `CC[C@H](C)[C@H]1C(=O)Nc2ccccc2CN1C(=O)N1CC(OCC(=O)N(C)C)C1` [Compound 269, 2-((1-((S)-3-((S)-sec-butyl)-2-oxo-2,3,4,5-tetrahydro-1H-benzo[e][1,4]diazepine-4-carbonyl)azetidin-3-yl)oxy)-N,N-dimethylacetamide], for which the AC1.4 amounted to 0.92 µM.
Turning to `CC[C@H](C)[C@H]1C(=O)Nc2ccccc2CN1C(=O)N1CC(OCC(=O)NC)C1` [Compound 270, 2-((1-((S)-3-((S)-sec-butyl)-2-oxo-2,3,4,5-tetrahydro-1H-benzo[e][1,4]diazepine-4-carbonyl)azetidin-3-yl)oxy)-N-methylacetamide], the AC1.4 was 0.94 µM.
On to `CC[C@H](C)[C@H]1C(=O)Nc2ccccc2CN1C(=O)N1CC(C)(N)C1` [Compound 271, (S)-4-(3-amino-3-methylazetidine-1-carbonyl)-3-((S)-sec-butyl)-1,3,4,5-tetrahydro-2H-benzo[e][1,4]diazepin-2-one], for which the AC1.4 was determined as 0.95 µM.
Consider `CC[C@H](C)[C@H]1C(=O)Nc2ccccc2CN1C(=O)N1C2COCC1C2` [Compound 272, (3S)-4-(3-oxa-6-azabicyclo[3.1.1]heptane-6-carbonyl)-3-((S)-sec-butyl)-1,3,4,5-tetrahydro-2H-benzo[e][1,4]diazepin-2-one], for which the AC1.4 came to 2.62 µM.
In the case of `CC[C@H](C)[C@H]1C(=O)Nc2ccccc2CN1C(=O)NC1(C#N)CC1` [Compound 273, (S)-3-((S)-sec-butyl)-N-(1-cyanocyclopropyl)-2-oxo-1,2,3,5-tetrahydro-4H-benzo[e][1,4]diazepine-4-carboxamide] it was 3.02 µM; in that of `CC[C@H](C)[C@H]1C(=O)Nc2ccccc2CN1C(=O)Nc1ccc(=O)n(CC(F)F)n1` [Compound 274, (S)-3-((S)-sec-butyl)-N-(1-(2,2-difluoroethyl)-6-oxo-1,6-dihydropyridazin-3-yl)-2-oxo-1,2,3,5-tetrahydro-4H-benzo[e][1,4]diazepine-4-carboxamide], 0.06 µM.
Consider `CC[C@H](C)[C@H]1C(=O)Nc2ccccc2CN1C(=O)Nc1ccc(=O)n(CC(F)(F)F)n1` [Compound 275, (S)-3-((S)-sec-butyl)-2-oxo-N-(6-oxo-1-(2,2,2-trifluoroethyl)-1,6-dihydropyridazin-3-yl)-1,2,3,5-tetrahydro-4H-benzo[e][1,4]diazepine-4-carboxamide], for which the AC1.4 was 0.06 µM.
With `CC[C@H](C)[C@H]1C(=O)Nc2ccccc2CN1C(=O)NCc1ccccc1` [Compound 276, (S)-N-benzyl-3-((S)-sec-butyl)-2-oxo-1,2,3,5-tetrahydro-4H-benzo[e][1,4]diazepine-4-carboxamide], the AC1.4 is 0.24 µM.
Turning to `CC[C@H](C)[C@H]1C(=O)Nc2ccccc2CN1C(=O)Nc1cccc(F)c1` [Compound 277, (S)-3-((S)-sec-butyl)-N-(3-fluorophenyl)-2-oxo-1,2,3,5-tetrahydro-4H-benzo[e][1,4]diazepine-4-carboxamide], the AC1.4 is 0.08 µM.
As to `CC[C@H](C)[C@H]1C(=O)Nc2ccccc2CN1C(=O)Nc1cnc2[nH]ncc2c1` [Compound 278, (S)-3-((S)-sec-butyl)-2-oxo-N-(1H-pyrazolo[3,4-b]pyridin-5-yl)-1,2,3,5-tetrahydro-4H-benzo[e][1,4]diazepine-4-carboxamide], the AC1.4 came out at 0.05 µM.
Take `CC[C@H](C)[C@H]1C(=O)Nc2ccccc2CN1C(=O)N1CC[C@H](C(=O)OC)C1` [Compound 279, methyl (S)-1-((S)-3-((S)-sec-butyl)-2-oxo-2,3,4,5-tetrahydro-1H-benzo[e][1,4]diazepine-4-carbonyl)pyrrolidine-3-carboxylate]: the AC1.4 stood at 1.46 µM.
Turning to `CC[C@H](C)[C@H]1C(=O)Nc2ccccc2CN1C(=O)N1CC[C@@H](O)C1` [Compound 280, (S)-3-((S)-sec-butyl)-4-((R)-3-hydroxypyrrolidine-1-carbonyl)-1,3,4,5-tetrahydro-2H-benzo[e][1,4]diazepin-2-one], the AC1.4 came out at 1.06 µM.
In the case of `CC[C@H](C)[C@H]1C(=O)Nc2ccccc2CN1C(=O)N1CCN(CCc2ccccc2)CC1` [Compound 281, (S)-3-((S)-sec-butyl)-4-(4-phenethylpiperazine-1-carbonyl)-1,3,4,5-tetrahydro-2H-benzo[e][1,4]diazepin-2-one] it was 0.30 µM.
As for `CC[C@H](C)[C@H]1C(=O)Nc2ccccc2CN1C(=O)N1CC[C@H](O)C1` [Compound 282, (S)-3-((S)-sec-butyl)-4-((S)-3-hydroxypyrrolidine-1-carbonyl)-1,3,4,5-tetrahydro-2H-benzo[e][1,4]diazepin-2-one], the AC1.4 is 0.38 µM.
With `CC[C@H](C)[C@H]1C(=O)Nc2ccccc2CN1C(=O)Nc1nnc(C)s1` [Compound 283, (S)-3-((S)-sec-butyl)-N-(5-methyl-1,3,4-thiadiazol-2-yl)-2-oxo-1,2,3,5-tetrahydro-4H-benzo[e][1,4]diazepine-4-carboxamide], the AC1.4 came out at 0.09 µM.
Take `CC[C@H](C)[C@H]1C(=O)Nc2ccccc2CN1C(=O)Nc1cccnc1CO` [Compound 284, (S)-3-((S)-sec-butyl)-N-(2-(hydroxymethyl)pyridin-3-yl)-2-oxo-1,2,3,5-tetrahydro-4H-benzo[e][1,4]diazepine-4-carboxamide]: the AC1.4 was 0.11 µM.
The figure for `CC[C@H](C)[C@H]1C(=O)Nc2ccccc2CN1C(=O)N1CC[C@@H](CO)C1` [Compound 285, (S)-3-((S)-sec-butyl)-4-((R)-3-(hydroxymethyl)pyrrolidine-1-carbonyl)-1,3,4,5-tetrahydro-2H-benzo[e][1,4]diazepin-2-one] is 0.54 µM; for `CC[C@H](C)[C@H]1C(=O)Nc2ccccc2CN1C(=O)NCc1ccccc1C(N)=O` [Compound 286] it is 0.30 µM.
For `CC[C@H](C)[C@H]1C(=O)Nc2ccccc2CN1C(=O)N[C@H](C(N)=O)c1ccccc1` [Compound 287, (S)-N-((S)-2-amino-2-oxo-1-phenylethyl)-3-((S)-sec-butyl)-2-oxo-1,2,3,5-tetrahydro-4H-benzo[e][1,4]diazepine-4-carboxamide], the AC1.4 came out at 0.35 µM.
As to `CC[C@H](C)[C@H]1C(=O)Nc2ccccc2CN1C(=O)c1ccc(C(N)=O)cc1` [Compound 288, 4-((S)-3-((S)-sec-butyl)-2-oxo-2,3,4,5-tetrahydro-1H-benzo[e][1,4]diazepine-4-carbonyl)benzamide], the AC1.4 was determined as 0.16 µM.
Take `CC[C@H](C)[C@H]1C(=O)Nc2ccccc2CN1C(=O)N1CC[C@H](C(=O)O)C1` [Compound 289, (S)-1-((S)-3-((S)-sec-butyl)-2-oxo-2,3,4,5-tetrahydro-1H-benzo[e][1,4]diazepine-4-carbonyl)pyrrolidine-3-carboxylic acid]: the AC1.4 worked out at 3.59 µM.
Regarding `CC[C@H](C)[C@H]1C(=O)Nc2ccccc2CN1C(=O)NC1CCN(C)CC1` [Compound 290, (S)-3-((S)-sec-butyl)-N-(1-methylpiperidin-4-yl)-2-oxo-1,2,3,5-tetrahydro-4H-benzo[e][1,4]diazepine-4-carboxamide], the AC1.4 was determined as 0.15 µM.
The figure for `CC[C@H](C)[C@H]1C(=O)Nc2ccccc2CN1C(=O)Nc1ccn(C)c(=O)c1` [Compound 291, (S)-3-((S)-sec-butyl)-N-(1-methyl-2-oxo-1,2-dihydropyridin-4-yl)-2-oxo-1,2,3,5-tetrahydro-4H-benzo[e][1,4]diazepine-4-carboxamide] is 0.05 µM; for `CC[C@H](C)[C@H]1C(=O)Nc2ccccc2CN1C(=O)Nc1cncc(OC)c1` [Compound 292, (S)-3-((S)-sec-butyl)-N-(5-methoxypyridin-3-yl)-2-oxo-1,2,3,5-tetrahydro-4H-benzo[e][1,4]diazepine-4-carboxamide] it is 0.05 µM.
On to `CC[C@H](C)[C@H]1C(=O)Nc2ccccc2CN1C(=O)NC1CCOCC1` [Compound 293, (S)-3-((S)-sec-butyl)-2-oxo-N-(tetrahydro-2H-pyran-4-yl)-1,2,3,5-tetrahydro-4H-benzo[e][1,4]diazepine-4-carboxamide], for which the AC1.4 came to 0.55 µM.
On to `CC[C@H](C)[C@H]1C(=O)Nc2ccccc2CN1C(=O)N1CC[C@H](C(=O)NC)C1` [Compound 294, (S)-1-((S)-3-((S)-sec-butyl)-2-oxo-2,3,4,5-tetrahydro-1H-benzo[e][1,4]diazepine-4-carbonyl)-N-methylpyrrolidine-3-carboxamide], for which the AC1.4 worked out at 2.32 µM.
The figure for `CC[C@H](C)[C@H]1C(=O)Nc2ccccc2CN1C(=O)N1CC[C@H](C(=O)N(C)C)C1` [Compound 295] is 3.41 µM.
Turning to `CC[C@H](C)[C@H]1C(=O)Nc2ccccc2CN1C(=O)N1CC[C@H](C(N)=O)C1` [Compound 296, (S)-1-((S)-3-((S)-sec-butyl)-2-oxo-2,3,4,5-tetrahydro-1H-benzo[e][1,4]diazepine-4-carbonyl)pyrrolidine-3-carboxamide], the AC1.4 is 1.75 µM.
The figure for `CC[C@H](C)[C@H]1C(=O)Nc2ccccc2CN1C(=O)N(C)C(C)C` [Compound 297, (S)-3-((S)-sec-butyl)-N-isopropyl-N-methyl-2-oxo-1,2,3,5-tetrahydro-4H-benzo[e][1,4]diazepine-4-carboxamide] is 1.13 µM.

Source of the values: patent publication US12441691B2 (Cytokinetics, Inc., priority 2020, dated 2025).
